Literature values, collected in patent US20160067273A1, “Compositions and methods for preparation of synthetic alpha-gal nanoparticles and for their clinical use” (priority 2014, published 2016).

Test system: human natural anti-Gal antibody
Conditions: equilibrium dialysis

SMILES | fold by which affinity of anti-Gal to Galα1-3Galβ1-4GlcNAc is higher than the affinity to this carbohydrate | further results
CC(=O)N[C@H]1C(O)O[C@H](CO)[C@@H](O[C@@H]2O[C@H](CO)[C@H](O)[C@H](O[C@H]3O[C@H](CO)[C@H](O)[C@H](O)[C@H]3O)[C@H]2O)[C@@H]1O (some centres unmarked) [Galα1-3Galβ1-4GlcNAc] |  | affinity (strength of binding) of anti-Gal to synthetic free oligosaccharide, rank: highest
OC[C@H]1O[C@H](OCC2O[C@@H](O)[C@H](O)[C@@H](O)[C@@H]2O)[C@H](O)[C@@H](O)[C@H]1O (some centres unmarked) [melibiose, Galα1-6Glc] | 300 fold | 
OC[C@H]1O[C@H](O[C@H]2[C@@H](O)[C@@H](CO)OC(O)[C@@H]2O)[C@H](O)[C@@H](O)[C@H]1O (some centres unmarked) [Galα1-3Gal] | 10 fold | 
OC[C@H]1O[C@H](O[C@H]2[C@@H](O)[C@@H](CO)O[C@@H](O[C@H]3[C@H](O)[C@@H](O)C(O)O[C@@H]3CO)[C@@H]2O)[C@H](O)[C@@H](O)[C@H]1O (some centres unmarked) [Galα1-3Galβ1-4Glc] |  | affinity of anti-Gal lower than that to Galα1-3Galβ1-4GlcNAc: approximately 30%
CO[C@@H]1O[C@H](CO)[C@H](O)[C@H](O)[C@H]1O [methyl-galactoside] | 300 fold | 
